Test results as given in patent US8088925B2, “Heteroaryl-carboxylic acid (sulfamoyl alkyl) amide-derivatives as factor Xa inhibitors” (priority 2005, dated 2012).
pKi: −log10 of the molar value.

Target: T1, human factor Xa (Homo sapiens, UniProt P00742)
T1 construct: human factor Xa; purchased Enzyme Research Laboratories, Inc; South Bend, Ind
Test: Factor Xa assay (chromogenic, purified enzyme)
Format: biochemical
Conditions: inhibition constant for factor Xa; chromogenic substrate S-2765 140 μM, enzyme 0.5 nM, 25° C.; Ki=IC50/{1+(substrate concentration/Km)}; read-out: Ki (FXa)
Description: Purified enzymes were used in chromogenic assays.
The assay was performed by pre-incubating the compound of formula I or Ia plus enzyme for 10 min. Then the assay was initiated by adding substrate to obtain a final volume of 100 μl. The initial velocity of chromogenic substrate hydrolysis was measured by the change in absorbance at 405 nm using a Bio-tek Instruments kinetic plate reader (Ceres UV900HDi) at 25° C. during the linear portion of the time course (usually 1.5 min after addition of substrate).

T1 sequence (P00742 235-488 limits assumed): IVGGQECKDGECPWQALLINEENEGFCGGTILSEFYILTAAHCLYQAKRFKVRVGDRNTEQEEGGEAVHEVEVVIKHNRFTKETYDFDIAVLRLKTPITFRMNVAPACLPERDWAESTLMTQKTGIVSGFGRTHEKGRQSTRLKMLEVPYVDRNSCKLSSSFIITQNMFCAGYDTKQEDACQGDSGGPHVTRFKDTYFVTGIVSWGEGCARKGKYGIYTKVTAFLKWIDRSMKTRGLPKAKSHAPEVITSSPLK
T1 sequence (P00742 41-179 partner limits assumed): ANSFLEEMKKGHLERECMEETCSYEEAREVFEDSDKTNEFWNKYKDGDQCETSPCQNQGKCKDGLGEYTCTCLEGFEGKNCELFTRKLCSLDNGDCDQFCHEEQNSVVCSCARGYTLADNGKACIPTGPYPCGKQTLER

Row | Compound | pKi
1 | CC(C)N1CCC(N2C(=O)CC(CNC(=O)c3ccc(Cl)s3)S2(=O)=O)CC1 (racemic) [Example 31, 5-Chloro-thiophene-2-carboxylic acid [2-(1-isopropyl-piperidin-4-yl)-1,1,3-trioxo-1λ^6-isothiazolidin-5-ylmethyl]-amide] | 7.49
2 | CC(C)N1CCC(N(CC(F)(F)F)S(=O)(=O)CCNC(=O)c2ccc(Cl)s2)CC1 [Example 4, 5-Chloro-thiophene-2-carboxylic acid {2-[(1-isopropyl-piperidin-4-yl)-(2,2,2-trifluoro-ethyl)-sulfamoyl]-ethyl}-amide] | 7.82
3 | CC(C)N1CCC(NS(=O)(=O)CCNC(=O)c2ccc(Br)o2)CC1 [Example 11, 5-Bromo-furan-2-carboxylic acid [2-(1-isopropyl-piperidin-4-ylsulfamoyl)-ethyl]-amide] | 5.50
4 | COCCN(C1CCN(C(C)C)CC1)S(=O)(=O)CCNC(=O)c1ccc(Cl)s1 [Example 15, 5-Chloro-thiophene-2-carboxylic acid {2-[(1-isopropyl-piperidin-4-yl)-(2-methoxy-ethyl)-sulfamoyl]-ethyl}-amide] | 8.30
5 | CC(C)N1CCC(N(CCO)S(=O)(=O)CCNC(=O)c2ccc(Cl)s2)CC1 [Example 16, 5-Chloro-thiophene-2-carboxylic acid {2-[(2-hydroxy-ethyl)-(1-isopropyl-piperidin-4-yl)-sulfamoyl]-ethyl}-amide] | 8.40
6 | CC(C)N1CCC(N(CCCO)S(=O)(=O)CCNC(=O)c2ccc(Cl)s2)CC1 [Example 17, 5-Chloro-thiophene-2-carboxylic acid {2-[(3-hydroxy-propyl)-(1-isopropyl-piperidin-4-yl)-sulfamoyl]-ethyl}-amide] | 8.40
7 | CC(C)N1CCC(N(CC(=O)N(C)C)S(=O)(=O)CCNC(=O)c2ccc(Cl)s2)CC1 [Example 18, 5-Chloro-thiophene-2-carboxylic acid {2-[dimethylcarbamoylmethyl-(1-isopropyl-piperidin-4-yl)-sulfamoyl]-ethyl}-amide] | 8.30
8 | CC(C)N1CCC(N(CC(=O)N2CCOCC2)S(=O)(=O)CCNC(=O)c2ccc(Cl)s2)CC1 [Example 19, 5-Chloro-thiophene-2-carboxylic acid {2-[(1-isopropyl-piperidin-4-yl)-(2-morpholin-4-yl-2-oxo-ethyl)-sulfamoyl]-ethyl}-amide] | 8.30
9 | CC(C)N1CCC(N(CC(N)=O)S(=O)(=O)CCNC(=O)c2ccc(Cl)s2)CC1 [Example 20, 5-Chloro-thiophene-2-carboxylic acid {2-[carbamoylmethyl-(1-isopropyl-piperidin-4-yl)-sulfamoyl]-ethyl}-amide] | 8.52
10 | Cc1cc(CN(C2CCN(C(C)C)CC2)S(=O)(=O)CCNC(=O)c2ccc(Cl)s2)no1 [Example 21, 5-Chloro-thiophene-2-carboxylic acid {2-[(1-isopropyl-piperidin-4-yl)-(5-methyl-isoxazol-3-ylmethyl)-sulfamoyl]-ethyl}-amide] | 8.40
11 | CCCNC(=O)N(C1CCN(C(C)C)CC1)S(=O)(=O)CCNC(=O)c1ccc(Cl)s1 [Example 24, 5-Chloro-thiophene-2-carboxylic acid {2-[(1-isopropyl-piperidin-4-yl)-propylaminocarbonyl-sulfamoyl]-ethyl}-amide] | 8.40
12 | CC(=O)N(C1CCN(C(C)C)CC1)S(=O)(=O)CCNC(=O)c1ccc(Cl)s1 [Example 25, 5-Chloro-thiophene-2-carboxylic acid {2-[acetyl-(1-isopropyl-piperidin-4-yl)-sulfamoyl]-ethyl}-amide] | 8.52
13 | CC(C)N1CCC(N(Cc2cc(-c3ccc(Cl)s3)on2)S(=O)(=O)CCNC(=O)c2ccc(Cl)s2)CC1 [Example 32, 5-Chloro-thiophene-2-carboxylic acid {2-[[5-(5-chloro-thiophen-2-yl)-isoxazol-3-ylmethyl]-(1-isopropyl-piperidin-4-yl)-sulfamoyl]-ethyl}-amide] | 8.22
14 | CC(C)N1CCC(N(Cc2nnc(C3CC3)s2)S(=O)(=O)CCNC(=O)c2ccc(Cl)s2)CC1 [Example 33, 5-Chloro-thiophene-2-carboxylic acid {2-[(5-cyclopropyl-[1,3,4]thiadiazol-2-ylmethyl)-(1-isopropyl-piperidin-4-yl)-sulfamoyl]-ethyl}-amide] | 8.22

Results, then the molecule that gave them:

Row | pKi | Compound
15 | 7.89 | CC(C)N1CCC(NS(=O)(=O)C(C)CNC(=O)c2ccc(Cl)s2)CC1 (racemic) [Example 26, 5-Chloro-thiophene-2-carboxylic acid [2-(1-isopropyl-piperidin-4-ylsulfamoyl)-propyl]-amide]
16 | 8.00 | CC(C)N1CCC(NS(=O)(=O)CCNC(=O)c2ccc(Cl)s2)CC1 [Example 1, 5-Chloro-thiophene-2-carboxylic acid [2-(1-isopropyl-piperidin-4-ylsulfamoyl)-ethyl]-amide]
17 | 6.78 | O=C(NCCS(=O)(=O)NC1CCN(C2CC2)CC1)c1ccc(Cl)s1 [Example 2, 5-Chloro-thiophene-2-carboxylic acid [2-(1-cyclopropyl-piperidin-4-ylsulfamoyl)-ethyl]-amide]
18 | 8.15 | CC(C)N1CCC(N(C)S(=O)(=O)CCNC(=O)c2ccc(Cl)s2)CC1 [Example 3, 5-Chloro-thiophene-2-carboxylic acid {2-[(1-isopropyl-piperidin-4-yl)-methyl-sulfamoyl]-ethyl}-amide]
19 | 7.18 | O=C(NCCS(=O)(=O)NC1CCN(c2ccncc2)CC1)c1ccc(Cl)s1 [Example 5, 5-Chloro-thiophene-2-carboxylic acid [2-(3,4,5,6-tetrahydro-2H-[1,4′]bipyridinyl-4-ylsulfamoyl)-ethyl]-amide]
20 | 4.69 | O=C(NCCS(=O)(=O)NC1CNC1)c1ccc(Cl)s1 [Example 6, 5-Chloro-thiophene-2-carboxylic acid[2-(azetidin-3-ylsulfamoyl)-ethyl]-amide]
21 | 5.14 | CC(C)N1CC(NS(=O)(=O)CCNC(=O)c2ccc(Cl)s2)C1 [Example 7, 5-Chloro-thiophene-2-carboxylic acid [2-(1-isopropyl-azetidin-3-ylsulfamoyl)-ethyl]-amide]
22 | 5.96 | O=C(NCCS(=O)(=O)NN1CCN(Cc2ccccc2)CC1)c1ccc(Cl)s1 [Example 8, 5-Chloro-thiophene-2-carboxylic acid [2-(4-benzyl-piperazin-1-ylsulfamoyl)-ethyl]-amide]
23 | 8.22 | CC(C)N1CCC(NS(=O)(=O)CCNC(=O)c2ccc(Br)s2)CC1 [Example 9, 5-Bromo-thiophene-2-carboxylic acid[2-(1-isopropyl-piperidin-4-ylsulfamoyl)-ethyl]-amide]
24 | 6.59 | Cc1ccc(C(=O)NCCS(=O)(=O)NC2CCN(C(C)C)CC2)s1 [Example 10, 5-Methyl-thiophene-2-carboxylic acid [2-(1-isopropyl-piperidin-4-ylsulfamoyl)-ethyl]-amide]
25 | 6.24 | CC(C)N1CCC(NS(=O)(=O)CCNC(=O)c2ccc(Cl)cc2)CC1 [Example 12, 4-Chloro-N-[2-(1-isopropyl-piperidin-4-ylsulfamoyl)-ethyl]-benzamide]
26 | 5.35 | CC(C)N1CCC(NS(=O)(=O)CCNC(=O)c2ccc(Cl)cn2)CC1 [Example 13, 5-Chloro-pyridine-2-carboxylic acid [2-(1-isopropyl-piperidin-4-ylsulfamoyl)-ethyl]-amide]
27 | 4.71 | CC(C)N1CCC(NS(=O)(=O)CCNC(=O)c2cccc(Cl)c2)CC1 [Example 14, 3-Chloro-N-[2-(1-isopropyl-piperidin-4-ylsulfamoyl)-ethyl]-benzamide]
28 | 8.10 | CC(C)N1CCC(N(Cc2cccnc2)S(=O)(=O)CCNC(=O)c2ccc(Cl)s2)CC1 [Example 22, 5-Chloro-thiophene-2-carboxylic acid {2-[(1-isopropyl-piperidin-4-yl)-pyridin-3-ylmethyl-sulfamoyl]-ethyl}-amide]
29 | 8.22 | CC(C)N1CCC(N(Cc2nccs2)S(=O)(=O)CCNC(=O)c2ccc(Cl)s2)CC1 [Example 23, 5-Chloro-thiophene-2-carboxylic acid {2-[(1-isopropyl-piperidin-4-yl)-thiazol-2-ylmethyl-sulfamoyl]-ethyl}-amide]
30 | 5.90 | CC(C)N1CCC(NS(=O)(=O)C[C@H](CO)NC(=O)c2ccc(Cl)s2)CC1 [Example 27, 5-Chloro-thiophene-2-carboxylic acid [(S)-1-hydroxymethyl-2-(1-isopropyl-piperidin-4-ylsulfamoyl)-ethyl]-amide]
31 | 5.47 | CC(C)N1CCC(NS(=O)(=O)CC(C)(C)NC(=O)c2ccc(Cl)s2)CC1 [Example 28, 5-Chloro-thiophene-2-carboxylic acid [2-(1-isopropyl-piperidin-4-ylsulfamoyl)-1,1-dimethyl-ethyl]-amide]
32 | 6.40 | CC(C)N1CCC(NS(=O)(=O)CCCNC(=O)c2ccc(Cl)s2)CC1 [Example 29, 5-Chloro-thiophene-2-carboxylic acid [3-(1-isopropyl-piperidin-4-ylsulfamoyl)-propyl]-amide]
